According to PMC11984407, “A natural small molecule isoginkgetin alleviates hypercholesterolemia and atherosclerosis by targeting ACLY” (Theranostics, 2025):

What was measured:
[1] = Pharmacokinetics study in ICR mice; format: in vivo, mouse
Procedure: Pharmacokinetic properties were investigated using ICR mice weighing between 18 and 22 grams. Six mice were assigned into two groups, with three in each group. ISOGK was administered via intragastric and tail vein injections. For both the intravenous and intragastric administration groups, cheek blood samples of approximately 0.05 mL were collected at 5 min, 15 min, 30 min, 1 h, 2 h, 4 h, 6 h, 8 h, and 24 h post-administration. The plasma concentration of compound in the mice was measured using the LC-MS/MS technique. Pharmacokinetic parameters were then analyzed using WinNonlin software.

[2] = system: C57BL/6J mice; experiment: Safety assessment in normal C57BL/6J mice; format: in vivo, mouse; conditions: 20 mg/kg/day i.p., 4 weeks, male C57BL/6J
[3] = system: Apoe-/- mice; experiment: Liver Acly knockdown by GalNAc-siAcly in Apoe-/- mice; format: in vivo, mouse
Procedure: Conjugating siRNA with N-acetylgalactosamine (GalNAc) is a promising strategy for depleting target gene expression specifically in the liver. […] In this study, we employed GalNAc-siAcly to knock down Acly in the liver of Apoe^-/- mice that were fed high cholesterol diet for 15 weeks. ISOGK was administered starting from the 7th week for 8 additional weeks (Figure 7A). […] The qRT-PCR results also supported the same conclusion (Figure S7A).
Figure 7 The anti-atherosclerotic and lipid-lowering effects of isoginkgetin in Apoe^-/- mice were ACLY-dependent. (A) Scheme of study design. Briefly, male Apoe^-/- mice were induced by high cholesterol diet for 7 weeks and administrated GalNAc-siAcly (3 mg/kg/month). Animals then received ISOGK (20 mg/kg/day) treatment for another 8 weeks. (B) Immunoblotting analysis and quantification of ACLY protein in liver and kidney tissues from indicated groups (n = 3). One-way ANOVA followed by Bonferroni's post hoc test. (C) Representative images of Oil Red O staining of en face aortas from male Apoe^-/- mice fed high cholesterol diet. (D) Representative images of ORO staining of the aortic sinus from male Apoe^-/- mice fed high cholesterol diet. (E) Representative images of H&E staining of the aortic sinus from male Apoe^-/- mice fed High cholesterol diet. (F) Quantitative analysis of C-E (n = 6 - 8). One-way ANOVA followed by Bonferroni's post hoc test. (G) Plasma levels of TC, TG, LDL-C and HDL-C in the indicated groups (n = 6 - 8). One-way ANOVA followed by Bonferroni's post hoc test. The data are means ± SEM, n.s., not significant, *P < 0.05, **P < 0.01, ***P < 0.001, ****P < 0.0001.

[4] = system: primary mouse hepatocytes; experiment: Nile Red staining of primary hepatocytes from high fat diet mice; format: cell-based; conditions: varying concentrations, 12 h, hepatocytes from 16-week high fat diet mice
From the text: Primary hepatocytes were isolated from male C57BL/6J mice fed a high-fat diet (HFD, 60 kcal% fat, 20 kcal% protein, 20 kcal% carbohydrate; D12492; RESEARCH DIETS, New Brunswick, NJ, USA) for 16 weeks according to our previous study. At the end of experiment, the mice were initially anaesthetized and subsequently subjected to perfusion with Liver Perfusion Medium (17701-038; Thermo Fisher Scientific, Waltham, MA, USA) via the portal vein, followed by Liver Digestion Medium (17701-034, Thermo Fisher Scientific, Waltham, MA, USA). Following perfusion, the liver was extracted and passed through a 100 μm cell strainer. The resulting cells were subjected to centrifugation at 50×g for 1 min, after which cells were incubated in DMEM supplemented with 10% FBS (F05-001-B160216; Bio-One Biotechnology, Guangzhou, China) and 1% penicillin-streptomycin (15140-122; Gibco by Invitrogen, Carlsbad, CA, USA) at 37 °C.
For the Nile Red staining procedure, primary mouse hepatocytes were treated with IOSGK at varying concentrations for a period of 12 h. Subsequently, the cells were fixed with 4% paraformaldehyde (PFA) and stained with Nile Red (N1142, Invitrogen, Carlsbad, CA, USA). The intracellular accumulation of lipids was visualized and quantified using a laser scanning confocal microscope (TCS SP8; Leica, Wetzlar, Germany).

COc1ccc(-c2cc(=O)c3c(O)cc(O)c(-c4cc(-c5cc(=O)c6c(O)cc(O)cc6o5)ccc4OC)c3o2)cc1 [ISOGK, Isoginkgetin]
peak plasma concentration ([1]; intravenous 5 mg/kg): 710 ng/mL | Tmax ([1]; mouse, plasma, intravenous 5 mg/kg, read-out: time of peak plasma concentration (converted)): 5 min | plasma levels after oral administration ([1]; oral 20 mg/kg): almost undetectable | oral bioavailability ([1]; oral 20 mg/kg vs intravenous 5 mg/kg): low oral bioavailability | H&E staining of heart, liver, spleen, lungs, kidneys [2]: no histological differences | PAS staining of kidney tissues [2]: no significant difference in glycogen deposits | body weight vs vehicle [2]: no statistically significant differences | fasting blood glucose (FBG) vs vehicle [2]: no statistically significant differences | lactate dehydrogenase (LDH) [2]: no variation | ratio of liver weight to body weight [2]: no significant change | serum ALT, AST, ALP, BUN, CREA, CK, CK-MB vs vehicle [2]: did not induce any significant difference | effect on atherosclerosis in aortic sinus ([3]; Acly knockdown Apoe-/- mice): not observed | lipid-lowering effect (plasma TC, TG, LDL-C, HDL-C) ([3]; Acly knockdown Apoe-/- mice): not further observed | aortic plaque area ([3]; Acly knockdown group (GalNAc-siAcly), 20 mg/kg/day): not decreased further | aortic sinus lesion areas and necrotic core area ([3]; control Apoe-/- mice, 20 mg/kg/day): significantly reduced | size of aortic plaques vs vehicle ([3]; control Apoe-/- mice, 20 mg/kg/day, 8 weeks): significantly lower | hepatic lipid levels (Nile Red staining) [4]: reduced hepatic lipid levels
